{"source": "ChEMBL document CHEMBL1151826", "about": "“Sulfated steroids: ptilosteroids A-C and ptilosaponosides A and B from the Solomon Islands marine sponge Ptilocaulis spiculifer” (J Nat Prod, 2009)", "data": [{"system": "KB", "assay": "Cytotoxicity against human KB cells", "type": "functional, cell-based", "values": [{"smiles": "C=C[C@H]1CC[C@H]2[C@@H]3CC[C@H]4[C@@H](O[C@@H]5O[C@H](CO)[C@@H](O)[C@H](OS(=O)(=O)O)[C@H]5O)[C@@H](O)CC[C@]4(CO)[C@H]3CC[C@]12C", "Activity": "Not toxic"}, {"smiles": "C=CC1C(O)CC2C3CCC4C(O)C(O)C(OS(=O)(=O)O)CC4(C)C3CCC12C", "note": "(stereo not given)", "Activity": "Not toxic"}, {"smiles": "C=CC1C(O)C(O)C2C3CCC4C(O)C(O)C(OS(=O)(=O)O)CC4(C)C3CCC12C", "note": "(stereo not given)", "Activity": "Not toxic"}, {"smiles": "C=C[C@H]1CC[C@H]2[C@@H]3CC[C@H]4[C@@H](O[C@@H]5O[C@H](CO)[C@@H](O)[C@H](OS(=O)(=O)O)[C@H]5O)[C@@H](OS(=O)(=O)O)CC[C@]4(CO)[C@H]3CC[C@]12C", "Activity": "Not toxic"}, {"smiles": "C=CC1CC(O)C2C3CCC4C(O)C(O)C(OS(=O)(=O)O)CC4(C)C3CCC12C", "note": "(stereo not given)", "Activity": "Not toxic"}]}]}
